Source: patent publication US10245332B2, “Contrast agents for applications including perfusion imaging” (Lantheus Medical Imaging, Inc., priority 2008, dated 2019)

Experiments:
[1] = microPET imaging of NHP brain after intravenous injection; type: in vivo, nonhuman primates (NHP)
Experimental: Similarly, in nonhuman primates (NHP), about 3 mCi of Agent 1 or Agent 2 was injected intravenously and the brain of NHP was imaged in a microPET. […] The NHP brain was not visible when imaged with Agent 1.

tumor = assay: Tumor uptake measured in mouse tumor models after imaging; type: in vivo; conditions: about 500 μCi intravenously
Experimental: Imaging studies using several mouse tumor models, including c-neu ONCO mice, nu/nu mice with OVCAR tumor, and nu/nu mice with HT1080 tumor, were conducted using contrast agents described herein. After administering anesthesia to the mouse, about 500 μCi of Agent 2 (from Table 1) were injected intravenously and the tumor was imaged in a microPET scanner. After imaging acquisition, images were reconstructed into tomographic views. […] In addition, tumor uptake of Agent 2 was measured in the mouse models after imaging. The uptake was detectable in a range from 1-4% injected dose per gram tissue.

[2] = microPET imaging of rat brain after intravenous injection; type: in vivo; conditions: about 1 mCi intravenously
Experimental: After anesthesia, about 1 mCi of Agent 2 or Agent 3 was injected into a rat intravenously and the rat brain was imaged in a microPET scanner. Following the image acquisition, the images were reconstructed into tomographic views.

[3] = Intravenous injection during microPET imaging in normal animals: heart rate, ECG, adverse effects; type: in vivo, rats, rabbits and nonhuman primates; conditions: anesthetized animals
Experimental: (§1) Imaging was performed with a microPET camera (Focus220, MICROPET) in anesthetized rats, rabbits and nonhuman primates (NHP) following the intravenous administration of 1, 2 and 3 mCi of ^18F labeled 2-tert-butyl-4-chloro-5-[4-(2-fluoro-ethoxymethyl)-benzyloy]-2H-pyridazin-3-one, also referred to herein as Agent 2. After count acquisition, images were constructed and manually re-orientated as a series of tomographic views. […] These images were acquired 30 minutes post injection (mpi) of 5.1 mCi of 2-tert-butyl-4-chloro-5-[4-(2-[^18F]fluoro-ethoxymethyl)-benzyloy]-2H-pyridazin-3-one and were decay corrected.

[4] = microPET brain imaging in normal NHP (Example 13); type: in vivo, nonhuman primates (NHP); conditions: 30 minutes post injection of 5.1 mCi
Experimental: as §1

| Structure (SMILES) | visibility of NHP brain in microPET images ([1]; NHP, about 3 mCi intravenously) | penetration into the brain, relative to Agent 2 ([1]; SAR study of Example 14) | tumor uptake (tumor) | passing the blood brain barrier and accumulating in the brain [2] | passing through blood brain barrier and accumulating in the brain ([1]; NHP, about 3 mCi intravenously) | changes in heart rate and ECG waveforms [3] | survival and adverse effects during image acquisition period [3] | transport into the brain (uptake and resolution of the images) [4] |
| --- | --- | --- | --- | --- | --- | --- | --- | --- |
| CC(C)(C)n1ncc(OCc2ccc(CCCC[18F])cc2)c(Cl)c1=O [Agent 1, 2-tert-butyl-4-chloro-5-[4-(4-[^18F]fluoro-butyl)-benzyloxy]-2H-pyridazin-3-one] | not visible | decreased penetration into the brain | – | – | – | – | – | – |
| CC(C)(C)n1ncc(OCc2ccc(COCC[18F])cc2)c(Cl)c1=O [Agent 2, 2-tert-Butyl-4-chloro-5-[4-(2-(^18F)fluoroethoxymethyl)-benzyloxy]-2H-pyridazin-3-one] | visible | – | 1-4 % injected dose per gram tissue | capable of passing the blood brain barrier and accumulating in the brain | capable of passing through blood brain barrier and accumulating in the brain | did not induce changes in heart rate and ECG waveforms | all animals survived the image acquisition period with no adverse effects | efficiently transported into the brain |
| CC(C)(C)n1ncc(OCc2ccc(OCCC[18F])cc2)c(Cl)c1=O [Agent 3, 2-tert-Butyl-4-chloro-5-[4-(3-(^18F)fluoropropoxy)-benzyloxy]-2H-pyridazin-3-one] | – | – | – | unlike Agent 3, Agent 2 is capable of passing the blood brain barrier | – | – | – | – |
